{"source": "patent US20060035873A1", "about": "“Methods for inducing apolipoprotein e secretion” (priority 2000, published 2006)", "key": {"[1]": {"system": "ApoE secretion by THP-1 cells", "assay": "Secretion of ApoE by THP-1 cells, ApoE determined by ELISA", "format": "cell-based, human", "conditions": "for Change in Apo E production: 72 hours incubation", "description": "The activities of the compounds can be determined an in vitro assay which comprises testing the effects of FXR and LXRα activators on the secretion of ApoE in the THP-1 cell line.\nThe THP1 cell line was derived from the peripheral blood of a child with acute monocytic leukemia. […] Fresh medium was added to maintain cell density between 2 and 9×10^5 cells/ml. Once a week, new cultures were initiated by inoculating 10 ml of medium with 2×10^6 cells in a 75 cm^2 plate. The plates were kept at 37° C. in a 5% CO2 atmosphere. For screening, cells were seeded in 24-well plates at the density of 2×10^5 cells per well. Phorbol-12-myristat-13-acetate (PMA) was added at 0 and 2.5 nM to initiate THP1 differentiation into adherent macrophage-like cells. Vehicles, reference compounds and test compounds were added simultaneously at concentrations varying from 1 to 50 μM and incubated for 72 hours. The culture medium was then recovered, centrifuged at 300 g for 5 min to remove any unattached cell and stored at −20° C. before analysis.\n96 well-microtiter plates were coated by incubating with a 5% gelatine solution from porcine skin, in 50 mM carbonate-bicarbonate buffer, pH9.6 at the concentration of 200 μl/well, for 2 hours at 37° C. The coating solution was carefully removed and the test compound was added (100 μl/well) at the appropriate dilution. Dilutions of a human ApoE standard (ICN BiomedicalsInc, USA) were simultaneously assayed. Test compounds and antibodies were diluted in the following buffer solution: PBS, 1% BSA, 0.1% Tween 20, pH 7.4. Test compounds were incubated for 1 hour at 37° C., and the wells were washed 3 times with 200 μl of buffer solution. One hundred microliters per well of the primary antibody (goat anti-human ApoE IgG) diluted 10000 fold was incubated for 1 hour at 37° C. under continuous shaking. After the third wash, 100 μl/well of the secondary antibody (anti-goat-IgG peroxidase conjugate) diluted 5000 fold was incubated for 1 hour at 37° C. with continuous shaking. Wells were washed 5 times and 100 μl/well of substrate (ortho-phenylenediamine dihydrochloride) was incubated for the appropriate time at room temperature in the dark with continuous shaking. The reaction was stopped by adding 50 μl/well of 3M sulfuric acid and incubating for 1 min at room temperature."}, "LXRα": {"target": "T1, LXRα (Homo sapiens, UniProt Q13133)", "T1 sequence (Q13133 1-447)": "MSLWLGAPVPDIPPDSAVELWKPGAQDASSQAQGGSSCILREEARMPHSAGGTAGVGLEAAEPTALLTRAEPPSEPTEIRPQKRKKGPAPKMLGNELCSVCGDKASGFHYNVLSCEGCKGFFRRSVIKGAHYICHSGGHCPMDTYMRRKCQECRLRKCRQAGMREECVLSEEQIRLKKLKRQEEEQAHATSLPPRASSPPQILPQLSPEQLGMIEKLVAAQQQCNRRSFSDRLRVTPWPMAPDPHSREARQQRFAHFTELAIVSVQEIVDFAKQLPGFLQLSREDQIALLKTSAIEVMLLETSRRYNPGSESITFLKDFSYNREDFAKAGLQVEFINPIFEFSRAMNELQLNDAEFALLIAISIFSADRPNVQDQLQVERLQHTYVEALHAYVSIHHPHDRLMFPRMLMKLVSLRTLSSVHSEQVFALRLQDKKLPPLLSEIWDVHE", "conditions": "see Janowsky et al. PNAS 1999; cited from earlier work"}, "FXR": {"system": "FXR", "conditions": "cited from earlier work"}}, "note": "Where two headings read alike, the source gives them in different places."}
{"compound": "CC(C)CC[C@@H](O)[C@@H](C)[C@H]1CC[C@H]2[C@@H]3CC=C4C[C@@H](O)CC[C@]4(C)[C@H]3CC[C@]12C", "note": "[22(R)-hydroxycholesterol, 5-cholestene-3β,22[R]-diol]", "values": [{"measurement": "ApoE secretion at submicromolar concentrations", "setting": "[1]; submicromolar concentrations", "value": "significant increases in ApoE secretion"}, {"measurement": "Interaction with Nuclear receptor", "setting": "LXRα", "value": "LXRα activator ^3)"}]}
{"compound": "CC(C)CC[C@H](O)[C@@H](C)[C@H]1CC[C@H]2[C@@H]3CC=C4C[C@@H](O)CC[C@]4(C)[C@H]3CC[C@]12C", "note": "[22(S)-hydroxycholesterol, 5-cholestene-3β,22[S]-diol]", "values": [{"measurement": "Interaction with Nuclear receptor", "setting": "LXRα", "value": "Less potent activator"}]}
{"compound": "C[C@H](CCC(=O)O)[C@H]1CC[C@H]2[C@@H]3[C@H](O)C[C@@H]4C[C@H](O)CC[C@]4(C)[C@H]3CC[C@]12C", "note": "[Chenodeoxycholic acid, 3α,7α-dihydroxy-5β-cholanic acid]", "values": [{"measurement": "Change in Apo E production", "setting": "[1]; compound 50 μM", "value": "+138%"}, {"measurement": "Change in Apo E production", "setting": "[1]; compound 50 μM, listed as chenodeoxycholic acid", "value": 138, "unit": "%"}]}
{"compound": "C[C@H](CCC(=O)O)[C@H]1CC[C@H]2[C@@H]3[C@H](O)C[C@@H]4C[C@H](O)CC[C@]4(C)[C@H]3C[C@H](O)[C@]12C", "note": "[Cholic acid, 3α,7α,12α-trihydroxy-5β-cholan-24-oic acid]", "values": [{"measurement": "Change in Apo E production", "setting": "[1]; compound 50 μM", "value": "+6%"}, {"measurement": "Change in Apo E production", "setting": "[1]; compound 50 μM, listed as cholic acid", "value": "did not change ApoE secretion"}, {"measurement": "Interaction with Nuclear receptor", "setting": "FXR; see Makishima et al., Parks et al., Wang et al. 1999", "value": "Does not activate"}]}
{"compound": "CC(C)=CCC/C(C)=C/CC/C(C)=C/CC/C(C)=C/CO", "note": "[Geranylgeraniol, All trans-3,7,11,15-tetramethyl-2,6,10,14-hexadecatetraen-1-ol]", "values": [{"measurement": "Change in Apo E production", "setting": "[1]; compound 20 μM", "value": "+36%"}, {"measurement": "Change in Apo E production", "setting": "[1]; compound 20 μM, listed as geranylgeraniol", "value": 36, "unit": "%"}, {"measurement": "Interaction with Nuclear receptor", "setting": "FXR; see Forman et al. Cell 1995", "value": "Does not activate"}]}
